Like-named read-outs stand apart in the source and are kept apart here.
Assays:
[1] = tested on: ERK phosphorylation in KYSE-520 cells; test: Phospho-ERK cellular assay (Advanced phospho-ERK1/2 (Thr202/Tyr204) TR-FRET kit); type: cell-based; conditions: KYSE-520 cells, 2 h at 37° C., TR-FRET, read-out: pERK IC50
Summary of the method: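 IC50 values are inflection points of four-parameter logistic fits of percent activity against compound dilution. Compound exposure lasted 2 h at 37° C in KYSE-520 cells. Lysates were probed overnight with Eu-cryptate/d2 antibodies to ERK1/2 phosphorylated at Thr202/Tyr204, so reduced TR-FRET indicates SHP2 inhibition.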

[2] = biological target: T1, SHP-2 enzyme (Met1-Leu525) (Homo sapiens, UniProt Q06124); test: SHP2 inhibition enzymatic assay (DiFMUP substrate, IRS1 peptide activation); type: biochemical; conditions: SHP2 wt; activated by 500 nM IRS1 peptide; 75 μM DiFMUP substrate
T1 construct: synthetized by Origene, Met1-Leu525, cat #TP750155; purchased Origene TP750155
T1 sequence (Q06124 1-525): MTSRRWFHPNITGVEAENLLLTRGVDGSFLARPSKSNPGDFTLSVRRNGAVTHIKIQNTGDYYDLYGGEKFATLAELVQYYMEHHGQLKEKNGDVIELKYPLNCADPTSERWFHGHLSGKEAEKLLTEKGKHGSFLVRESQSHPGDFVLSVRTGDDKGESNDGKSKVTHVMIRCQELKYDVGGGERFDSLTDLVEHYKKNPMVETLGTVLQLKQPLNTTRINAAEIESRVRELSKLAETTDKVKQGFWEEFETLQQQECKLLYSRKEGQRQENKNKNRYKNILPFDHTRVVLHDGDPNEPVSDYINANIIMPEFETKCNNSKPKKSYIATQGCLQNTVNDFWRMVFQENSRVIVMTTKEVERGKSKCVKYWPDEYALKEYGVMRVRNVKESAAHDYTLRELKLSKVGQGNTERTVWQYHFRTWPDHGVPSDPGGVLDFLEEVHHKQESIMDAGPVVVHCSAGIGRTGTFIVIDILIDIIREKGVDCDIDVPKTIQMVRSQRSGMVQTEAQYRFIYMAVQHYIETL
Summary of the method: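 SHP-2 (Met1-Leu525, 0.5 nM final) preincubated 30 min with compounds and IRS1 activating peptide in HEPES pH 7.2 buffer with NaCl, KCl, EDTA, tween-20, 5 mM DTT. DiFMUP then added for 30 min at room temperature and fluorescence read. IC50 from four-parameter logistic fit of % inhibition.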

Row | Structure (SMILES) | IC50 ([1]; Homo sapiens, KYSE-520, 2 h) | IC50 [2] | IC50 [1]
1 | N[C@@H]1c2ccccc2CC12CCN(c1nc3nc(Sc4ccc5cc[nH]c5c4)cnc3[nH]1)CC2 [Example 193, (S)-1′-(5-((1H-indol-6-yl)thio)-1H-imidazo[4,5-b]pyrazin-2-yl)-1,3-dihydrospiro[indene-2,4′-piperidin]-1-amine] | 1 to 5 µM | < 0.5 µM | 
2 | N[C@@H]1c2ccccc2CC12CCN(c1nc3ncc(Sc4ccnc5nccnc45)nc3[nH]1)CC2 [Example 194, (S)-1′-(6-(pyrido[2,3-b]pyrazin-8-ylthio)-1H-imidazo[4,5-b]pyrazin-2-yl)-1,3-dihydrospiro[indene-2,4′-piperidin]-1-amine] | < 1 µM | < 0.5 µM | 
3 | Cc1nccc(Sc2cnc3nc(N4CCC5(CC4)Cc4ccccc4[C@H]5N)[nH]c3n2)c1Cl [Example 195, (S)-1′-(6-((3-chloro-2-methylpyridin-4-yl)thio)-1H-imidazo[4,5-b]pyrazin-2-yl)-1,3-dihydrospiro[indene-2,4′-piperidin]-1-amine] | < 1 µM | < 0.5 µM | 
4 | N[C@@H]1c2ccncc2CC12CCN(c1nc3ncc(Sc4ccnc(NC5CC5)c4Cl)nc3[nH]1)CC2 [Example 196, (S)-1′-(5-((3-chloro-2-(cyclopropylamino)pyridin-4-yl)thio)-1H-imidazo[4,5-b]pyrazin-2-yl)-5,7-dihydrospiro[cyclopenta[c]pyridine-6,4′-piperidin]-5-amine] | < 1 µM | < 0.5 µM | 
5 | N[C@H]1c2ccncc2CC12CCN(c1nc3nc(Sc4ccnc(NC5CC5)c4Cl)cnc3[nH]1)CC2 [Example 197, (R)-1′-(5-((3-chloro-2-(cyclopropylamino)pyridin-4-yl)thio)-1H-imidazo[4,5-b]pyrazin-2-yl)-5,7-dihydrospiro[cyclopenta[c]pyridine-6,4′-piperidin]-5-amine] | 1 to 5 µM | < 0.5 µM | 
6 | N[C@@H]1c2ccccc2CC12CCN(c1nc3ncc(Sc4cccc5[nH]ccc45)nc3[nH]1)CC2 [Example 198, (S)-1′-(6-((1H-indol-4-yl)thio)-1H-imidazo[4,5-b]pyrazin-2-yl)-1,3-dihydrospiro[indene-2,4′-piperidin]-1-amine] | < 1 µM | < 0.5 µM | 
7 | Nc1nccc(Sc2cnc3nc(N4CCC5(CC4)Cc4cc(F)ccc4[C@H]5N)[nH]c3n2)c1Cl [Example 199, (S)-1′-(6-((2-amino-3-chloropyridin-4-yl)thio)-1H-imidazo[4,5-b]pyrazin-2-yl)-5-fluoro-1,3-dihydrospiro[indene-2,4′-piperidin]-1-amine] | < 1 µM | < 0.5 µM | 
8 | CCOc1cnccc1Sc1cnc2[nH]c(N3CCC4(CC3)Cc3ccccc3[C@H]4N)nc2n1 [Example 200, (S)-1′-(5-((3-ethoxypyridin-4-yl)thio)-1H-imidazo[4,5-b]pyrazin-2-yl)-1,3-dihydrospiro[indene-2,4′-piperidin]-1-amine] | < 1 µM | < 0.5 µM | 
9 | CNc1nccc(Sc2cnc3[nH]c(N4CCC5(CC4)Cc4ccccc4[C@H]5N)nc3n2)c1C#N [Example 201, (S)-4-((2-(1-amino-1,3-dihydrospiro[indene-2,4′-piperidin]-1′-yl)-1H-imidazo[4,5-b]pyrazin-5-yl)thio)-2-(methylamino)nicotinonitrile] | < 1 µM | < 0.5 µM | 
10 | Cn1cc2cccc(Sc3cnc4[nH]c(N5CCC6(CC5)Cc5ccccc5[C@H]6N)nc4n3)c2n1 [Example 202, (S)-1′-(5-((2-methyl-2H-indazol-7-yl)thio)-1H-imidazo[4,5-b]pyrazin-2-yl)-1,3-dihydrospiro[indene-2,4′-piperidin]-1-amine] | 1 to 5 µM | < 0.5 µM | 
11 | Nc1nccc(Sc2cnc3nc(N4CCC5(CC4)Cc4cccc(F)c4[C@H]5N)[nH]c3n2)c1Cl [Example 203, (S)-1′-(6-((2-amino-3-chloropyridin-4-yl)thio)-1H-imidazo[4,5-b]pyrazin-2-yl)-7-fluoro-1,3-dihydrospiro[indene-2,4′-piperidin]-1-amine] | < 1 µM | < 0.5 µM | 
12 | Cc1c(Sc2cnc3nc(N4CCC5(CC4)Cc4ccccc4[C@H]5N)[nH]c3n2)ccnc1N [Example 204, (S)-1′-(6-((2-amino-3-methylpyridin-4-yl)thio)-1H-imidazo[4,5-b]pyrazin-2-yl)-1,3-dihydrospiro[indene-2,4′-piperidin]-1-amine] | < 1 µM | < 0.5 µM | 
13 | COc1ccc2c(c1)[C@@H](N)C1(CCN(c3nc4nc(Sc5ccnc(N)c5Cl)cnc4[nH]3)CC1)C2 [Example 205, (S)-1′-(5-((2-amino-3-chloropyridin-4-yl)thio)-1H-imidazo[4,5-b]pyrazin-2-yl)-6-methoxy-1,3-dihydrospiro[indene-2,4′-piperidin]-1-amine] | < 1 µM | < 0.5 µM | 

Results, then the compound that gave them:

Row | IC50 ([1]; Homo sapiens, KYSE-520, 2 h) | IC50 [2] | IC50 [1] | Structure (SMILES)
14 | < 1 µM | < 0.5 µM |  | Nc1nccc(Sc2cnc3[nH]c(N4CCC5(CC4)Cc4c(F)cccc4[C@H]5N)nc3n2)c1Cl [Example 206, (S)-1′-(5-((2-amino-3-chloropyridin-4-yl)thio)-1H-imidazo[4,5-b]pyrazin-2-yl)-4-fluoro-1,3-dihydrospiro[indene-2,4′-piperidin]-1-amine]
15 | 1 to 5 µM | < 0.5 µM | < 1 µM | N[C@@H]1c2cccc(F)c2CC12CCN(c1nc3nc(Sc4ccncc4Cl)cnc3[nH]1)CC2 [Example 207, (S)-1′-(5-((3-chloropyridin-4-yl)thio)-1H-imidazo[4,5-b]pyrazin-2-yl)-4-fluoro-1,3-dihydrospiro[indene-2,4′-piperidin]-1-amine]
16 | 1 to 5 µM | < 0.5 µM | < 1 µM | CNc1nccc(Sc2cnc3[nH]c(N4CCC5(CC4)Cc4ccccc4[C@H]5N[S@+]([O-])C(C)(C)C)nc3n2)c1Cl [Example 209, (R)-N-((S)-1′-(5-((3-chloro-2-(methylamino)pyridin-4-yl)thio)-1H-imidazo[4,5-b]pyrazin-2-yl)-1,3-dihydrospiro[indene-2,4′-piperidin]-1-yl)-2-methylpropane-2-sulfinamide]
17 | < 1 µM | < 0.5 µM |  | N[C@@H]1c2ccccc2CC12CCN(c1nc3nc(Sc4cccc5nonc45)cnc3[nH]1)CC2 [Example 213, (S)-1′-(5-(benzo[c][1,2,5]oxadiazol-4-ylthio)-1H-imidazo[4,5-b]pyrazin-2-yl)-1,3-dihydrospiro[indene-2,4′-piperidin]-1-amine]
18 | < 1 µM | < 0.5 µM |  | N#Cc1c(Sc2cnc3[nH]c(N4CCC5(CC4)Cc4ccccc4[C@H]5N)nc3n2)ccnc1N [Example 215, (S)-2-amino-4-((2-(1-amino-1,3-dihydrospiro[indene-2,4′-piperidin]-1′-yl)-1H-imidazo[4,5-b]pyrazin-5-yl)thio)nicotinonitrile]
19 | < 1 µM | < 0.5 µM |  | N[C@@H]1c2ccccc2CC12CCN(c1nc3nc(Sc4cccc5[nH]c(=O)cnc45)cnc3[nH]1)CC2 [Example 216, (S)-5-((2-(1-amino-1,3-dihydrospiro[indene-2,4′-piperidin]-1′-yl)-1H-imidazo[4,5-b]pyrazin-5-yl)thio)quinoxalin-2(1H)-one]
20 | < 1 µM | < 0.5 µM |  | N#Cc1ncccc1Sc1cnc2[nH]c(N3CCC4(CC3)Cc3ccccc3[C@H]4N)nc2n1 [Example 217, (S)-3-((2-(1-amino-1,3-dihydrospiro[indene-2,4′-piperidin]-1′-yl)-1H-imidazo[4,5-b]pyrazin-5-yl)thio)picolinonitrile]

Source: US20220289753A1, “SHP2 INHIBITORS” (IRBM S.P.A., priority 2019, published 2022)
